Measurements taken from PubChem BioAssay (NCI).
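Tested at 5 concentrations; 48 h exposure; 96-well plates; endpoints linearly interpolated, else capped at highest concentration. Definition used: TGI = concentration required for complete inhibition of growth.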

Legend:
Assay in all cases: inhibition of tumour cell growth, NCI panel, 48 h
[1] = system: UO-31 renal
[2] = system: 786-0 renal
[3] = system: M14 melanoma
[4] = system: EKVX NSCLC
[5] = system: COLO 205 colon
[6] = system: SF-295 CNS
[7] = system: MALME-3M melanoma
[8] = system: SF-539 CNS
[9] = system: SK-MEL-5 melanoma
[10] = system: SK-MEL-28 melanoma
[11] = system: HCC-2998 colon
[12] = system: HL-60(TB) leukemia
[13] = system: SK-OV-3 ovarian
[14] = system: OVCAR-4 ovarian
[15] = system: OVCAR-5 ovarian
[16] = system: SK-MEL-2 melanoma
[17] = system: MDA-MB-435
[18] = system: NCI/ADR-RES ovarian

Row | Compound | TGI [1] [µM] | TGI [2] [µM] | TGI [3] [µM] | TGI [4] [µM] | TGI [5] [µM] | TGI [6] [µM] | TGI [7] [µM] | TGI [8] [µM] | TGI [9] [µM] | TGI [10] [µM] | TGI [11] [µM] | TGI [12] [µM] | TGI [13] [µM] | TGI [14] [µM] | TGI [15] [µM] | TGI [16] [µM] | TGI [17] [µM] | TGI [18] [µM]
1 | O=C1NCCCC12CCCNC2=O | > 100 | > 100 | > 100 | > 100 | > 100 | > 100 | > 100 | > 100 | > 100 | > 100 | > 100 | > 100 | > 100 |  |  |  |  | 
2 | CCn1c2ccccc2c2ccc3c(c21)C(=O)c1ccccc1C3=O | > 100 | > 100 | > 100 | > 100 | > 100 | > 100 | > 100 | > 100 | > 100 | > 100 | > 100 | > 100 | > 100 | > 100 |  |  |  | 
3 | N#Cc1c(-c2ccc(Cl)cc2)c(C#N)c(=O)n(NS(=O)(=O)c2ccccc2)c1S | 45.3 | 34.6 | > 100 | > 100 | > 100 | > 100 | > 100 | 42.1 | 33.3 |  |  | 60 | > 100 | > 100 | > 100 | > 100 | 65 | 74.2
4 | NC1=NNC2(C(=O)N1)c1ccccc1-c1ccccc12 | > 10 | > 10 | > 10 |  | > 10 | > 10 | > 10 | > 10 | > 10 | > 10 | > 10 | > 10 | > 10 |  | > 10 | > 10 |  | > 10
5 | COC(=O)C1=C(C(=O)OC)C2C(C)=CC(C)=CN2C(C#N)=C(SC)S1 (centres undefined) | 26.8 | 73.2 | 35.2 | 64.9 | 34.4 | > 100 | 48.3 | 61.4 | 30.7 | 41.8 | 94.5 | 42.7 | > 100 |  | 84.7 | 45.8 |  | 
6 | Cc1cc(NC(=O)NC(=O)c2ccccc2N)ccc1Oc1ncc(Br)cn1 | > 59.6 | 41.2 | > 31.2 | > 84.3 | 0.108 | 17 | > 69.9 | 0.287 | 16.2 | > 100 | 7.77 | 1.39 | 3.02 | > 75.9 | > 100 | 0.481 | < 0.0108 | 
7 | CCN1CN(c2ccccc2)C2(CCN(CCCSc3ccc(F)cc3)CC2)C1=O | 18.1 | 26.6 | 21.6 | 21.2 | 6.48 | 25.7 | 36.1 | 21.5 | 13.8 | 31 |  | 26.6 | 33.2 |  | 20.5 |  | 27.3 | 28.2
8 | COc1ccc(N(C)Sc2ccccc2)cc1 | > 100 | 34.9 | > 100 |  | > 100 | > 100 | > 100 | 56 | > 100 | > 100 | > 100 | 52.3 | > 100 |  | > 100 | > 100 |  | 
9 | COc1ccc(-c2cc(-c3ccc(Nc4ccnc5cc(Cl)ccc45)cc3)nc(N)c2C#N)cc1 | 70.1 | > 100 | > 100 | > 100 | > 100 | > 100 | > 100 | > 100 |  | > 100 | > 100 | > 100 | > 100 | > 100 | > 100 | > 100 | > 100 | > 100
10 | COc1cc(/C=C/C(=O)OC2C(O)C3CC(OC(=O)c4cc(OC)c(OC)c(OC)c4)CC2N3C)cc(OC)c1OC (centres undefined) | > 50 | > 50 | > 50 | > 50 | 42.5 | > 50 |  | > 50 | > 50 |  | > 50 |  | > 50 | > 50 | > 50 | > 50 | > 50 | > 50
11 | Nc1ccc(C(=O)NN2C(=O)C(Cl)C2c2cc(Br)ccc2O)cc1 (centres undefined) | > 100 | > 100 | > 100 | > 100 | > 100 | > 100 | > 100 | > 100 | > 100 | > 100 | > 100 | 78.8 | > 100 | > 100 | > 100 |  |  | 
12 | O=C(O)C12C3C4C1C1C2C3C1(Br)C41OCCO1 (centres undefined) | > 100 | > 100 |  | > 100 | > 100 | > 100 | > 100 | > 100 | > 100 | > 100 | > 100 | > 100 | > 100 |  | > 100 | > 100 |  | 
13 | COP(=O)(OC)C(=NCc1ccccc1)NNc1ccc([N+](=O)[O-])cc1 |  | > 100 | 53.7 |  | > 100 | 67.4 | > 100 | 44.7 | 34.8 | > 100 | > 100 | 46 |  | 90.7 | > 100 | 52.9 |  | 
14 | O/N=C/c1cc2c(cc1Br)OCO2 | > 100 | > 100 | > 100 | > 100 | > 100 | > 100 | > 100 | > 100 | > 100 |  | > 100 | > 100 | > 100 | > 100 | > 100 | > 100 |  | 
15 | C=CN1C(=O)OC[C@@H]1c1ccccc1 | > 100 | > 100 | > 100 | > 100 | > 100 | > 100 | > 100 | > 100 | > 100 | > 100 | > 100 | > 100 | > 100 | > 100 | > 100 | > 100 |  | 
